US10144742B2 (Millennium Pharmaceuticals, Inc., priority 2014, dated 2018)

Key:
[1] = biological target: hNAMPT protein (Homo sapiens (Human), UniProt P43490); assay: NAMPT enzyme assay (TR-FRET/HTRF, BodiPY ligand, anti 6His-Tb); assay type: binding; conditions: for inhibition at 1 µM: NAMPT inhibition at compound concentration 1 μM, read-out: Percent Inhibition; for IC50: NAMPT inhibition, IC50 range class, read-out: IC50
In short: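 TR-FRET binding assay in which His-tagged human NAMPT with anti-6His-Tb is displaced by compound from a BodiPY ligand, incubated 1 h at rt in the dark. Excitation was at 320 nm, with the 520/486 nm emission ratio read. IC50 was fitted from inhibition relative to DMSO controls.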

[2] = test system: PC3 cells; assay: PC3 growth inhibition (Cell-titer glo, 72 hours); assay type: cell-based; conditions: Homo sapiens, PC-3; compound concentration 1.667 μM; PC3 cells, 72 hours, Cell-titer glo; read-out: Percent Inhibition (PC3 growth inhibition)
In short: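 PC3 cells in RPMI1640 seeded overnight at 37 °C, 5% CO2, then exposed to compound diluted in AIM serum-free medium for 72 h. Viability by CellTiter-Glo luminescence vs DMSO controls; single-concentration % remaining viability (1 μM or 1.667 μM), or GI50/LD50 from curves.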

[3] = test system: experimental autoimmune encephalomyelitis (EAE); conditions: model of T-cell mediated autoimmune disorders; cited from earlier work
[4] = test system: collagen-induced arthritis; conditions: cited from earlier work
[5] = test system: activated T cells; conditions: cited from earlier work

Chain of hNAMPT protein (P43490 whole entry): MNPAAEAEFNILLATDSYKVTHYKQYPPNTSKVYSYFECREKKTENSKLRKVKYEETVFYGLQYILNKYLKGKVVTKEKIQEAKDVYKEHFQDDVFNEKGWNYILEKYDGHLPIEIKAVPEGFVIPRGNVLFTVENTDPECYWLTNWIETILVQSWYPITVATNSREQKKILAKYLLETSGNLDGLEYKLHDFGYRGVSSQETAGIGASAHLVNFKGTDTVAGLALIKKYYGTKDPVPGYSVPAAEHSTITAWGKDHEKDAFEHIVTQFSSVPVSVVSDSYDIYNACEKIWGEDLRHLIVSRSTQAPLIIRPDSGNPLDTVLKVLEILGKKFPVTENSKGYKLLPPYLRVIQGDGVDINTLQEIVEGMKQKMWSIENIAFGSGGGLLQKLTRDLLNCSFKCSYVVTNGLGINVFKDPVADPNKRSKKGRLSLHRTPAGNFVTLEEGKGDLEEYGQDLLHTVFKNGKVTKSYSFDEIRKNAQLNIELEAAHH

SMILES: O=C(NCCCc1ncc[nH]1)c1ccc2nc(-c3ccc(F)cc3)c(-c3sccc3Cl)nc2c1 [Compound I-504, 3-(3-chloro-2-thienyl)-2-(4-fluorophenyl)-N-[3-(1H-imidazol-2-yl)propyl]quinoxaline-6-carboxamide]
- inhibition at 1 µM [1]: 93%
- IC50 [1]: < 100 nM
- inhibition at 1.667 µM [2]: 3%

SMILES: CN1CCCC1CCOc1nc2ccc(C(=O)NCCCc3ncc[nH]3)cc2nc1-c1ccc(F)cc1 (stereo not drawn) [Compound I-505, 3-(4-fluorophenyl)-N-[3-(1H-imidazol-2-yl)propyl]-2-[2-(1-methylpyrrolidin-2-yl)ethoxy]quinoxaline-6-carboxamide]
- inhibition at 1 µM [1]: > 99%
- IC50 [1]: < 100 nM
- inhibition at 1.667 µM [2]: 3%

SMILES: CC(C)Oc1nc2ccc(C(=O)NCc3cn4cccnc4n3)cc2nc1-c1ccc(F)cc1 [Compound I-506, 3-(4-Fluorophenyl)-N-(imidazo[1,2-a]pyrimidin-2-ylmethyl)-2-isopropoxyquinoxaline-6-carboxamide]
- inhibition at 1 µM [1]: 78%
- IC50 [1]: 100 to 500 nM
- inhibition at 1.667 µM [2]: > 99%

SMILES: Cc1ccc(F)c(-c2nc3cc(C(=O)NCCCc4ncc[nH]4)ccc3nc2-c2ccc(F)cc2)c1 [Compound I-507, 3-(2-fluoro-5-methylphenyl)-2-(4-fluorophenyl)-N-[3-(1H-imidazol-2-yl)propyl]quinoxaline-6-carboxamide]
- inhibition at 1 µM [1]: 97%
- IC50 [1]: < 100 nM
- inhibition at 1.667 µM [2]: 2%

SMILES: O=C(NCCCc1cn[nH]c1)c1ccc2nc(-c3ccc(F)cc3)c(-c3ccc(F)cc3)nc2c1 [Compound I-508, 2,3-bis(4-fluorophenyl)-N-[3-(1H-pyrazol-4-yl)propyl]quinoxaline-6-carboxamide]
- inhibition at 1 µM [1]: 73%
- IC50 [1]: 100 to 500 nM
- inhibition at 1.667 µM [2]: 3%

SMILES: CN(C)CCOc1nc2ccc(C(=O)NCCCc3ncc[nH]3)cc2nc1-c1ccc(F)cc1 [Compound I-509, 2-[2-(dimethylamino)ethoxy]-3-(4-fluorophenyl)-N-[3-(1H-imidazol-2-yl)propyl]quinoxaline-6-carboxamide]
- inhibition at 1 µM [1]: 94%
- IC50 [1]: < 100 nM
- inhibition at 1.667 µM [2]: 3%

SMILES: CN1CCCC(COc2nc3ccc(C(=O)NCCCc4ncc[nH]4)cc3nc2-c2ccc(F)cc2)C1 (stereo not drawn) [Compound I-510, 3-(4-fluorophenyl)-N-[3-(1H-imidazol-2-yl)propyl]-2-[(1-methylpiperidin-3-yl)methoxy]quinoxaline-6-carboxamide]
- inhibition at 1 µM [1]: 98%
- IC50 [1]: < 100 nM
- inhibition at 1.667 µM [2]: 2%

SMILES: COc1cccc(-c2nc3cc(C(=O)NCCCc4ncc[nH]4)ccc3nc2OC(C)C)c1 [Compound I-511, N-[3-(1H-imidazol-2-yl)propyl]-2-isopropoxy-3-(3-methoxyphenyl)quinoxaline-6-carboxamide]
- inhibition at 1 µM [1]: > 99%
- IC50 [1]: < 100 nM
- inhibition at 1.667 µM [2]: 2%

SMILES: COc1cc(F)cc(-c2nc3cc(C(=O)NCCCc4ncc[nH]4)ccc3nc2-c2ccc(F)cc2)c1 [Compound I-512, 3-(3-fluoro-5-methoxyphenyl)-2-(4-fluorophenyl)-N-[3-(1H-imidazol-2-yl)propyl]quinoxaline-6-carboxamide]
- inhibition at 1 µM [1]: 92%
- IC50 [1]: < 100 nM
- inhibition at 1.667 µM [2]: 2%

SMILES: CN1CCC(COc2nc3ccc(C(=O)NCCCc4ncc[nH]4)cc3nc2-c2ccc(F)cc2)C1 (stereo not drawn) [Compound I-513, 3-(4-fluorophenyl)-N-[3-(1H-imidazol-2-yl)propyl]-2-[(1-methylpyrrolidin-3-yl)methoxy]quinoxaline-6-carboxamide]
- inhibition at 1 µM [1]: 99%
- IC50 [1]: < 100 nM
- inhibition at 1.667 µM [2]: 3%

SMILES: O=C(NCCCc1ncc[nH]1)c1ccc2nc(OC3CCNCC3)c(-c3ccc(F)cc3)nc2c1 [Compound I-514, 3-(4-fluorophenyl)-N-[3-(1H-imidazol-2-yl)propyl]-2-(piperidin-4-yloxy)quinoxaline-6-carboxamide]
- inhibition at 1 µM [1]: 97%
- IC50 [1]: < 100 nM
- inhibition at 1.667 µM [2]: 3%

SMILES: COc1cc(-c2nc3cc(C(=O)NCCCc4nnc[nH]4)ccc3nc2-c2ccc(F)cc2)c(F)cn1 [Compound I-515, 3-(5-fluoro-2-methoxypyridin-4-yl)-2-(4-fluorophenyl)-N-[3-(4H-1,2,4-triazol-3-yl)propyl]quinoxaline-6-carboxamide]
- inhibition at 1 µM [1]: 75%
- IC50 [1]: 100 to 500 nM
- inhibition at 1.667 µM [2]: 1%

SMILES: COc1cc(-c2nc3cc(C(=O)NCc4nc5cnccc5[nH]4)ccc3nc2-c2ccc(F)cc2)c(F)cn1 [Compound I-516, 3-(5-fluoro-2-methoxypyridin-4-yl)-2-(4-fluorophenyl)-N-(1H-imidazo[4,5-c]pyridin-2-ylmethyl)quinoxaline-6-carboxamide]
- inhibition at 1 µM [1]: 93%
- IC50 [1]: < 100 nM
- inhibition at 1.667 µM [2]: 1%

SMILES: CCOc1cc(-c2nc3cc(C(=O)NCCCc4ncc[nH]4)ccc3nc2-c2ccc(F)cc2)c(F)cn1 [Compound I-517, 3-(2-ethoxy-5-fluoropyridin-4-yl)-2-(4-fluorophenyl)-N-[3-(1H-imidazol-2-yl)propyl]quinoxaline-6-carboxamide]
- inhibition at 1 µM [1]: 76%
- IC50 [1]: 100 to 500 nM
- inhibition at 1.667 µM [2]: 1%

SMILES: CC(C)Oc1cc(-c2nc3cc(C(=O)NCCCc4ncc[nH]4)ccc3nc2-c2ccc(F)cc2)c(F)cn1 [Compound I-518, 3-(5-fluoro-2-isopropoxypyridin-4-yl)-2-(4-fluorophenyl)-N-[3-(1H-imidazol-2-yl)propyl]quinoxaline-6-carboxamide]
- inhibition at 1 µM [1]: 86%
- IC50 [1]: 100 to 500 nM
- inhibition at 1.667 µM [2]: 1%

SMILES: COc1cc(-c2nc3cc(C(=O)NCCCc4nccn4C)ccc3nc2-c2ccc(F)cc2)c(F)cn1 [Compound I-519, 3-(5-fluoro-2-methoxypyridin-4-yl)-2-(4-fluorophenyl)-N-[3-(1-methyl-1H-imidazol-2-yl)propyl]quinoxaline-6-carboxamide]
- inhibition at 1 µM [1]: 97%
- IC50 [1]: < 100 nM
- inhibition at 1.667 µM [2]: 99%

SMILES: O=C(NCCCc1nnc[nH]1)c1ccc2nc(-c3ccc(F)cc3)c(-c3cc(Cl)ccc3F)nc2c1 [Compound I-520, 3-(5-chloro-2-fluorophenyl)-2-(4-fluorophenyl)-N-[3-(4H-1,2,4-triazol-3-yl)propyl]quinoxaline-6-carboxamide]
- inhibition at 1 µM [1]: 89%
- IC50 [1]: < 100 nM
- inhibition at 1.667 µM [2]: 1%

SMILES: O=C(/C=C/c1cccnc1)NCCCCC1CCN(C(=O)c2ccccc2)CC1 [FK866]
- effect on manifestations of EAE [3]: ameliorated the manifestations of experimental autoimmune encephalomyelitis
- efficacy in animal models of arthritis [4]: efficacious
- effect on activated T cells [5]: selectively block proliferation and induce apoptosis of activated T cells
